# Source: ChEMBL document CHEMBL6103661, “Identification of Phosphodiesterase-7 Inhibitors with Spiro[[1,3]oxazolo[5,4-f]quinazoline-9,1'-cyclohexan]-7-one Scaffold for the Treatment of Chronic Fatigue” (ACS Med Chem Lett, 2025)
# How the values were obtained:
# [1] = target: High affinity 3',5'-cyclic-AMP phosphodiesterase 7A (Homo sapiens, UniProt Q13946); experiment: Inhibition of human recombinant PDE7A expressed in Sf9 insect cells using FAM-cAMP as substrate preincubated for 15 mins followed by substrate addition and measured after 30 mins by spectrofluorimetry
# Chain of High affinity 3',5'-cyclic-AMP phosphodiesterase 7A (Q13946 whole entry): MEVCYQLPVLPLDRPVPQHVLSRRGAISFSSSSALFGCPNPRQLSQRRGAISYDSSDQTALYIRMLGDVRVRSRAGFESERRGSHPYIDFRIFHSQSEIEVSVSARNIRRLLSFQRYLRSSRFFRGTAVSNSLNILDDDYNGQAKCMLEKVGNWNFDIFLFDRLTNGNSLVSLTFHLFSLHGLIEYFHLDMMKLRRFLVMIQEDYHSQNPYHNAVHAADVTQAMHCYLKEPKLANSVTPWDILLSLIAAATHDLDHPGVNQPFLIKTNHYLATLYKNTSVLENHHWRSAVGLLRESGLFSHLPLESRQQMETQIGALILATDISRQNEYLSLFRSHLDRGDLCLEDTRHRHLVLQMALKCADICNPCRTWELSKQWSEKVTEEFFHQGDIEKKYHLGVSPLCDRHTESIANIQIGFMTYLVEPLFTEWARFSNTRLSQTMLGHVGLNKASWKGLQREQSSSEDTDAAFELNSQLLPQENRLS
# [2] = tested on: Soleus muscle; experiment: Protection against 12.5 mM KCl-induced loss of contractile force in Sprague-Dawley rat soleus muscle assessed as mean residual contractile force at 1 uM pretreated for 10 mins followed by KCl stimulation at 5 mins interval for 30 mins and measured in presence of salbutamol by isometric force transducer method relative to control; type: functional; conditions: time 40 min
# [3] = target: 3',5'-cyclic-AMP phosphodiesterase 7B (Homo sapiens, UniProt Q9NP56); experiment: Inhibition of human recombinant PDE7B expressed in Sf9 insect cells using FAM-cAMP as substrate preincubated for 15 mins followed by substrate addition and measured after 30 mins by spectrofluorimetry
# Chain of 3',5'-cyclic-AMP phosphodiesterase 7B (Q9NP56 whole entry): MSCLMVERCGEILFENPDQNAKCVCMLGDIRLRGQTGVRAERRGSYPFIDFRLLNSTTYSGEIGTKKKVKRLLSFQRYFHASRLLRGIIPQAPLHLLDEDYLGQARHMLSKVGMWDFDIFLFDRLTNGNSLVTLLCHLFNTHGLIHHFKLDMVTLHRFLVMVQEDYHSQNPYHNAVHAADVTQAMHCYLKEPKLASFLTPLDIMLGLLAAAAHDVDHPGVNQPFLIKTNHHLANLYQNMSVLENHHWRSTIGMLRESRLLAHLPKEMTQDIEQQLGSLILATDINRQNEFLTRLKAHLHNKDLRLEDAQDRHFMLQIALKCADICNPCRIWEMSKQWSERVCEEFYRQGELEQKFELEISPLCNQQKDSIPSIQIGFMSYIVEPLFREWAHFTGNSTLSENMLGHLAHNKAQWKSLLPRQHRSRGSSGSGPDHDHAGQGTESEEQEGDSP
IC50 [1] [nM],IC50 [3] [nM],Structure (SMILES),Activity [2] [%]
5.57,,CN(C)C(=O)CNCc1nc2cc(Cl)c3c(c2o1)C1(CCCCC1)NC(=O)N3,60.5
28,58,CN(C)C1CCN(C(=O)c2cc3cc(Cl)c4c(c3o2)C2(CCCCC2)NC(=O)N4)CC1,73.7
